Conditions: 75 mg/kg/day i.n.

NC(=O)c1ncn([C@@H]2O[C@H](CO)[C@@H](O)[C@H]2O)n1 [Ribavirin]
Tox Controls Surv/Total (bid x 5, uninfected mice): 3/3
Tox Controls Mean Host Weight Change (initial weight vs weight 18 h after final treatment): -1.7 g
